{"source": "patent US20100099561A1", "about": "“HETEROBICYCLIC ALKYLTHIO-BRIDGED ISOXAZOLINES” (E.I. DU PONT DE NEMOURS AND COMPANY, priority 2008, published 2010)", "format_in_all_cases": "in vivo", "key": {"[1]": {"system": "barnyardgrass (Echinochloa crus-galli)", "assay": "Test A preemergence, barnyardgrass", "details": "0 to 100 scale (0 no effect, 100 complete control)", "in_short": "(§1)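 Ratings of 0–100 (0 no effect, 100 complete control) came from visual comparison with untreated controls after roughly ten days in a greenhouse. Plants in loam soil–sand blend were treated with compound in non-phytotoxic solvent plus surfactant, pre- or postemergence (one- to two-leaf stage).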"}, "[2]": {"system": "large crabgrass (Digitaria sanguinalis)", "assay": "Test A preemergence, large crabgrass", "details": "0 to 100 scale (0 no effect, 100 complete control)", "in_short": "as §1"}, "[3]": {"system": "pigweed (Amaranthus retroflexus)", "assay": "Test A preemergence, pigweed", "details": "0 to 100 scale (0 no effect, 100 complete control)", "in_short": "as §1"}, "[4]": {"system": "velvetleaf (Abutilon theophrasti)", "assay": "Test A preemergence, velvetleaf", "details": "0 to 100 scale (0 no effect, 100 complete control)", "in_short": "as §1"}, "[5]": {"system": "wheat (Triticum aestivum)", "assay": "Test A preemergence, wheat", "details": "0 to 100 scale (0 no effect, 100 complete control)", "in_short": "as §1"}, "[6]": {"system": "barnyardgrass (Echinochloa crus-galli)", "assay": "Test A postemergence, barnyardgrass", "details": "0 to 100 scale (0 no effect, 100 complete control)", "in_short": "as §1"}, "[7]": {"system": "velvetleaf (Abutilon theophrasti)", "assay": "Test A postemergence, velvetleaf", "details": "0 to 100 scale (0 no effect, 100 complete control)", "in_short": "as §1"}, "[8]": {"system": "wheat (Triticum aestivum)", "assay": "Test A postemergence, wheat", "details": "0 to 100 scale (0 no effect, 100 complete control)", "in_short": "as §1"}, "[9]": {"system": "Italian ryegrass (Lolium multiflorum)", "assay": "Test B preemergence, Italian ryegrass", "details": "Preemergence, scale 0 to 100", "source_text": "(§2) Seeds of plant species selected from blackgrass (Alopecurus myosuroides), downy bromegrass (Bromus tectorum), green foxtail (Setaria viridis), Italian ryegrass (Lolium multiflorum), wheat (Triticum aestivum), wild oat (Avena fatua), catchweed bedstraw (Galium aparine), bermudagrass (Cynodon dactylon), Surinam grass (Brachiaria decumbens), cocklebur (Xanthium strumarium), corn (Zea mays), large crabgrass (Digitaria sanguinalis), woolly cupgrass (Eriochloa villosa), giant foxtail (Setaria faberii), goosegrass (Eleusine indica), johnsongrass (Sorghum halepense), kochia (Kochia scoparia), lambsquarters (Chenopodium album), morningglory (Ipomoea coccinea), nightshade (eastern black nightshade, Solanum ptycanthum), yellow nutsedge (Cyperus esculentus), pigweed (Amaranthus retroflexus), ragweed (common ragweed, Ambrosia elatior), soybean (Glycine max), sunflower (common oilseed sunflower, Helianthus annuus), Russian thistle (Salsola kali), and velvetleaf (Abutilon theophrasti) were planted into a blend of loam soil and sand and treated preemergence with test compounds formulated in a non-phytotoxic solvent mixture which included a surfactant. Treated plants and controls were maintained in a greenhouse for 13 to 15 days, after which time all species were compared to controls and visually evaluated. Plant response ratings, summarized in Table B, are based on a scale of 0 to 100 where 0 is no effect and 100 is complete control. A dash (-) response means no test result."}, "[10]": {"system": "Surinam grass (Brachiaria decumbens)", "assay": "Test B preemergence, Surinam grass", "details": "Preemergence, scale 0 to 100", "source_text": "as §2"}, "corn (Zea mays)": {"system": "corn (Zea mays)", "assay": "Test B preemergence, corn", "details": "scale 0 to 100", "source_text": "as §2"}, "[11]": {"system": "giant foxtail (Setaria faberii)", "assay": "Test B preemergence, giant foxtail", "details": "scale 0 to 100", "source_text": "as §2"}, "[12]": {"system": "johnsongrass (Sorghum halepense)", "assay": "Test B preemergence, johnsongrass", "details": "scale 0 to 100", "source_text": "as §2"}, "[13]": {"system": "lambsquarters (Chenopodium album)", "assay": "Test B preemergence, lambsquarters", "details": "scale 0 to 100", "source_text": "as §2"}, "[14]": {"system": "morningglory (Ipomoea coccinea)", "assay": "Test B preemergence, morningglory", "details": "scale 0 to 100", "source_text": "as §2"}, "[15]": {"system": "nightshade (eastern black nightshade, Solanum ptycanthum)", "assay": "Test B preemergence, nightshade", "details": "scale 0 to 100", "source_text": "as §2"}, "soybean (Glycine max)": {"system": "soybean (Glycine max)", "assay": "Test B preemergence, soybean", "details": "Preemergence, scale 0 to 100", "source_text": "as §2"}, "[16]": {"system": "umbrella sedge (Cyperus difformis)", "assay": "Test B flooded paddy test, umbrella sedge", "details": "Flood, scale 0 to 100", "in_short": "(§3)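 Compounds were added directly to paddy water over 2-leaf-stage plants in pots flooded 3 cm above soil, water depth maintained. Visual injury scored against controls after 13 to 15 days in greenhouse, 0 (none) to 100 (complete control); dash indicates no result.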"}, "[17]": {"system": "ducksalad (Heteranthera limosa)", "assay": "Test B flooded paddy test, ducksalad", "details": "Flood, scale 0 to 100", "in_short": "as §3"}, "[18]": {"system": "barnyardgrass (Echinochloa crus-galli)", "assay": "Test B flooded paddy test, barnyardgrass", "details": "Flood", "in_short": "as §3"}}}
{"molecule": "CC1(C)CC(S(=O)(=O)Cc2c(C(F)(F)F)nc3n(c2=O)CCS3)=NO1", "note": "[Compound 6]", "values": [{"measurement": "Plant response rating, Barnyardgrass", "setting": "[1]; 125 g ai/ha", "result": 70}, {"measurement": "Plant response rating, Barnyardgrass", "setting": "[1]; 500 g ai/ha", "result": 90}, {"measurement": "Plant response rating, Crabgrass, Large", "setting": "[2]; 125 g ai/ha", "result": 80}, {"measurement": "Plant response rating, Crabgrass, Large", "setting": "[2]; 500 g ai/ha", "result": 100}, {"measurement": "Plant response rating, Pigweed", "setting": "[3]; 125 g ai/ha", "result": 60}, {"measurement": "Plant response rating, Pigweed", "setting": "[3]; 500 g ai/ha", "result": 100}, {"measurement": "Plant response rating, Velvetleaf", "setting": "[4]; 125 g ai/ha", "result": 0}, {"measurement": "Plant response rating, Velvetleaf", "setting": "[4]; 500 g ai/ha", "result": 80}, {"measurement": "Plant response rating, Wheat", "setting": "[5]; 125 g ai/ha", "result": 0}, {"measurement": "Plant response rating, Wheat", "setting": "[5]; 500 g ai/ha", "result": 0}, {"measurement": "Plant response rating, Barnyardgrass", "setting": "[6]; 125 g ai/ha", "result": 70}, {"measurement": "Plant response rating, Barnyardgrass", "setting": "[6]; 500 g ai/ha", "result": 80}, {"measurement": "Plant response rating, Velvetleaf", "setting": "[7]; 125 g ai/ha", "result": 60}, {"measurement": "Plant response rating, Velvetleaf", "setting": "[7]; 500 g ai/ha", "result": 80}, {"measurement": "Plant response rating, Wheat", "setting": "[8]; 125 g ai/ha", "result": 20}, {"measurement": "Plant response rating, Wheat", "setting": "[8]; 500 g ai/ha", "result": 30}, {"measurement": "Plant response rating, Ryegrass, Italian", "setting": "[9]; 16 g ai/ha", "result": 0}, {"measurement": "Plant response rating, Ryegrass, Italian", "setting": "[9]; 31 g ai/ha", "result": 15}, {"measurement": "Plant response rating, Ryegrass, Italian", "setting": "[9]; 62 g ai/ha", "result": 80}, {"measurement": "Plant response rating, Ryegrass, Italian", "setting": "[9]; 125 g ai/ha", "result": 95}, {"measurement": "Plant response rating, Surinam Grass", "setting": "[10]; 16 g ai/ha", "result": 20}, {"measurement": "Plant response rating, Surinam Grass", "setting": "[10]; 31 g ai/ha", "result": 60}, {"measurement": "Plant response rating, Surinam Grass", "setting": "[10]; 62 g ai/ha", "result": 98}, {"measurement": "Plant response rating, Surinam Grass", "setting": "[10]; 125 g ai/ha", "result": 100}, {"measurement": "Plant response rating, Corn", "setting": "corn (Zea mays); 16 g ai/ha", "result": 0}, {"measurement": "Plant response rating, Corn", "setting": "corn (Zea mays); 31 g ai/ha", "result": 0}, {"measurement": "Plant response rating, Corn", "setting": "corn (Zea mays); 62 g ai/ha", "result": 0}, {"measurement": "Plant response rating, Corn", "setting": "corn (Zea mays); 125 g ai/ha", "result": 0}, {"measurement": "Plant response rating, Foxtail, Giant", "setting": "[11]; 16 g ai/ha", "result": 0}, {"measurement": "Plant response rating, Foxtail, Giant", "setting": "[11]; 31 g ai/ha", "result": 95}, {"measurement": "Plant response rating, Foxtail, Giant", "setting": "[11]; 62 g ai/ha", "result": 100}, {"measurement": "Plant response rating, Foxtail, Giant", "setting": "[11]; 125 g ai/ha", "result": 100}, {"measurement": "Plant response rating, Johnsongrass", "setting": "[12]; 16 g ai/ha", "result": 45}, {"measurement": "Plant response rating, Johnsongrass", "setting": "[12]; 31 g ai/ha", "result": 70}, {"measurement": "Plant response rating, Johnsongrass", "setting": "[12]; 62 g ai/ha", "result": 98}, {"measurement": "Plant response rating, Johnsongrass", "setting": "[12]; 125 g ai/ha", "result": 100}, {"measurement": "Plant response rating, Lambsquarters", "setting": "[13]; 16 g ai/ha", "result": 0}, {"measurement": "Plant response rating, Lambsquarters", "setting": "[13]; 31 g ai/ha", "result": 20}, {"measurement": "Plant response rating, Lambsquarters", "setting": "[13]; 62 g ai/ha", "result": 90}, {"measurement": "Plant response rating, Lambsquarters", "setting": "[13]; 125 g ai/ha", "result": 95}, {"measurement": "Plant response rating, Morningglory", "setting": "[14]; 16 g ai/ha", "result": 0}, {"measurement": "Plant response rating, Morningglory", "setting": "[14]; 31 g ai/ha", "result": 0}, {"measurement": "Plant response rating, Morningglory", "setting": "[14]; 62 g ai/ha", "result": 0}, {"measurement": "Plant response rating, Morningglory", "setting": "[14]; 125 g ai/ha", "result": 0}, {"measurement": "Plant response rating, Nightshade", "setting": "[15]; 16 g ai/ha", "result": 0}, {"measurement": "Plant response rating, Nightshade", "setting": "[15]; 31 g ai/ha", "result": 45}, {"measurement": "Plant response rating, Nightshade", "setting": "[15]; 62 g ai/ha", "result": 95}, {"measurement": "Plant response rating, Nightshade", "setting": "[15]; 125 g ai/ha", "result": 98}, {"measurement": "Plant response rating, Soybean", "setting": "soybean (Glycine max); 16 g ai/ha", "result": 0}, {"measurement": "Plant response rating, Soybean", "setting": "soybean (Glycine max); 31 g ai/ha", "result": 0}, {"measurement": "Plant response rating, Soybean", "setting": "soybean (Glycine max); 62 g ai/ha", "result": 0}, {"measurement": "Plant response rating, Soybean", "setting": "soybean (Glycine max); 125 g ai/ha", "result": 0}, {"measurement": "Plant response rating, Sedge, Umbrella", "setting": "[16]; 62 g ai/ha", "result": 0}, {"measurement": "Plant response rating, Sedge, Umbrella", "setting": "[16]; 250 g ai/ha", "result": 75}, {"measurement": "Plant response rating, Ducksalad", "setting": "[17]; 62 g ai/ha", "result": 40}, {"measurement": "Plant response rating, Ducksalad", "setting": "[17]; 250 g ai/ha", "result": 65}, {"measurement": "Plant response rating, Barnyardgrass", "setting": "[18]; 62 g ai/ha, scale 0 to 100", "result": 0}, {"measurement": "Plant response rating, Barnyardgrass", "setting": "[18]; 250 g ai/ha, scale 0 to 100 (0 no effect, 100 complete control)", "result": 0}]}
